Structures can show the parent of a compound that is named as a salt.
target: T1, MPO (purified from human polynuclear leukocytes) (Homo sapiens, UniProt P05164); assay: MPO Amplex Red Activity Assay; format: biochemical; settings: Table 1, 2 μM H2O2, pH 7.4
T1 construct: purified from human polynuclear leukocytes; purchased Calbiochem/EMD Biosciences; host or cells: human polynuclear leukocytes (natural source)
In short: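 Human leukocyte MPO […] oxidises 30 μM Amplex Red with 2 μM H2O2 in 50 mM NaPi pH 7.4, 150 mM NaCl, 1 mM DTPA, 2% DMSO. Resorufin fluorescence (ex 530/em 580 nm) read every 20 s, minus catalase background. kobs from the first 600 s, corrected for auto-inactivation, fit versus [I] for kinact/KI.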

T1 sequence (P05164 279-745 limits assumed): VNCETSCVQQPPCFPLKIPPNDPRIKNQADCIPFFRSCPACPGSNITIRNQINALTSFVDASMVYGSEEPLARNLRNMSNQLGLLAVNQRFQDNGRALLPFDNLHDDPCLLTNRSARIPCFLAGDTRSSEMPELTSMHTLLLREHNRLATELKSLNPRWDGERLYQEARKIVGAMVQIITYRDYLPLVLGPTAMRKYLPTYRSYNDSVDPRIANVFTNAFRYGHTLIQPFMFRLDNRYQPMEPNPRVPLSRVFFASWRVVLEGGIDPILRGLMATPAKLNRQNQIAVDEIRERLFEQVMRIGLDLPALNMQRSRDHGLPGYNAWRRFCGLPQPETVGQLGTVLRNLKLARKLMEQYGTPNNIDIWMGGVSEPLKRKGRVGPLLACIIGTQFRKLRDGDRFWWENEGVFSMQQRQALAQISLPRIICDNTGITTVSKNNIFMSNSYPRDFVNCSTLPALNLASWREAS
T1 sequence (P05164 165-273 limits assumed): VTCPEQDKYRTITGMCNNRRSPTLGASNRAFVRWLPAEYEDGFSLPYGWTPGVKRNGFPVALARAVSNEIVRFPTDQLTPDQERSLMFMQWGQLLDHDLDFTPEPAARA

Structure (SMILES)	MPO kinact/Ki
COc1cc(OC)c(-c2cc(=O)[nH]c(=S)n2CCCN)cc1C [Example 105, 1-(3-aminopropyl)-6-(2,4-dimethoxy-5-methylphenyl)-2-thioxo-2,3-dihydropyrimidin-4(1H)-one hydrochloride]	27300 1/s per M
COc1ccc(Cl)cc1-c1cc(=O)[nH]c(=S)n1C[C@@H]1CCCN1 [Example 123, 6-(5-chloro-2-methoxyphenyl)-1-[(2S)-pyrrolidin-2-ylmethyl]-2-thioxo-2,3-dihydropyrimidin-4(1H)-one hydrochloride]	3780 1/s per M
COc1cc(OC)c(-c2cc(=O)[nH]c(=S)n2CCN)cc1C [Example 81, 1-(2-aminoethyl)-6-(2,4-dimethoxy-5-methylphenyl)-2-thioxo-2,3-dihydropyrimidin-4(1H)-one hydrochloride]	24300 1/s per M
COc1ccc(-c2cc(=O)[nH]c(=S)n2CCNC(=O)OC(C)(C)C)c(OC)c1 [Example 5, tert-butyl 2-(6-(2,4-dimethoxyphenyl)-4-oxo-2-thioxo-3,4-dihydropyrimidin-1(2H)-yl)ethylcarbamate]	1280 1/s per M
O=c1cc(-c2cc3ccccc3s2)n(CCO)c(=S)[nH]1 [Example 40, 6-(1-benzothien-2-yl)-1-(2-hydroxyethyl)-2-thioxo-2,3-dihydropyrimidin-4(1H)-one]	6430 1/s per M
COc1ccc(-c2cc(=O)[nH]c(=S)n2C[C@@H](C)N)c(OC)c1 [Example 175, 1-[(2R)-2-aminopropyl]-6-(2,4-dimethoxyphenyl)-2-thioxo-2,3-dihydropyrimidin-4(1H)-one hydrochloride]	459 1/s per M
COc1ccc(-c2cc(=O)[nH]c(=S)n2CCC(C)(C)N)c(OC)c1 [Example 219, 1-(3-amino-3-methylbutyl)-6-(2,4-dimethoxyphenyl)-2-thioxo-2,3-dihydropyrimidin-4(1H)-one hydrochloride]	1970 1/s per M
COc1ccc(Cl)cc1-c1cc(=O)[nH]c(=S)n1CCCNC(=O)CN [Example 149, N-{3-[6-(5-chloro-2-methoxyphenyl)-4-oxo-2-thioxo-3,4-dihydropyrimidin-1(2H)-yl]propyl} glycinamide hydrochloride]	9770 1/s per M
NCCn1c(-c2csc3ccccc23)cc(=O)[nH]c1=S [Example 36, 1-(2-aminoethyl)-6-(1-benzothien-3-yl)-2-thioxo-2,3-dihydropyrimidin-4(1H)-one hydrochloride]	5980 1/s per M
COCCn1c(-c2ccccc2-n2nccn2)cc(=O)[nH]c1=S [Example 101, 1-(2-methoxyethyl)-2-thioxo-6-[2-(2H-1,2,3-triazol-2-yl)phenyl]-2,3-dihydropyrimidin-4(1H)-one]	4140 1/s per M
COCCn1c(-c2cccc3c2OCCO3)cc(=O)[nH]c1=S [Example 80, 6-(2,3-dihydro-1,4-benzodioxin-5-yl)-1-(2-methoxyethyl)-2-thioxo-2,3-dihydropyrimidin-4(1H)-one]	4130 1/s per M
CCOc1ccc(-c2cc(=O)[nH]c(=S)n2CCOC)cn1 [Example 313, 6-(6-ethoxypyridin-3-yl)-1-(2-methoxyethyl)-2-thioxo-2,3-dihydropyrimidin-4(1H)-one]	973 1/s per M
COc1ccc(-c2cc(=O)[nH]c(=S)n2Cc2ccccc2)c(OC)c1 [Example 228, 1-benzyl-6-(2,4-dimethoxyphenyl)-2-thioxo-2,3-dihydropyrimidin-4(1H)-one]	615 1/s per M
COCCn1c(-c2ccc(S(C)(=O)=O)cc2)cc(=O)[nH]c1=S [Example 110, 1-(2-methoxyethyl)-6-[4-(methylsulfonyl)phenyl]-2-thioxo-2,3-dihydropyrimidin-4(1H)-one]	864 1/s per M
COc1ccc(-c2cc(=O)[nH]c(=S)n2Cc2ccccn2)c(OC)c1 [Example 230, 6-(2,4-dimethoxyphenyl)-1-(pyridin-2-ylmethyl)-2-thioxo-2,3-dihydropyrimidin-4(1H)-one]	1740 1/s per M
COCCn1c(-c2ccc(C#N)cc2)cc(=O)[nH]c1=S [Example 13, 4-[3-(2-methoxyethyl)-6-oxo-2-thioxo-1,2,3,6-tetrahydro-pyrimidin-4-yl]benzonitrile]	745 1/s per M
COc1ccc(Cl)cc1-c1cc(=O)[nH]c(=S)n1CCCNC(C)=O [Example 134, N-{3-[6-(5-chloro-2-methoxyphenyl)-4-oxo-2-thioxo-3,4-dihydropyrimidin-1(2H)-yl]propyl} acetamide]	5350 1/s per M
COc1ccc(-c2cc(=O)[nH]c(=S)n2CCO)cc1 [Example 12, 1-(2-hydroxyethyl)-6-(4-methoxyphenyl)-2-thioxo-2,3-dihydropyrimidin-4(1H)-one]	5010 1/s per M
COc1cc(-c2cc(=O)[nH]c(=S)n2CCO)c(OC)cc1C [Example 273, 6-(2,5-dimethoxy-4-methylphenyl)-1-(2-hydroxyethyl)-2-thioxo-2,3-dihydropyrimidin-4(1H)-one]	8180 1/s per M
COCCn1c(-c2ccc(OC(F)(F)F)cc2)cc(=O)[nH]c1=S [Example 210, 1-(2-methoxyethyl)-2-thioxo-6-[4-(trifluoromethoxy)phenyl]-2,3-dihydropyrimidin-4(1H)-one]	968 1/s per M

Next, values leading:

MPO kinact/Ki	Structure (SMILES)
276 1/s per M	COc1ccc(-c2cc(=O)[nH]c(=S)n2CC(=O)O)c(OC)c1 [Example 89, [6-(2,4-dimethoxyphenyl)-4-oxo-2-thioxo-3,4-dihydropyrimidin-1(2H)-yl]acetic acid]
4900 1/s per M	COc1ccc(-c2cc(=O)[nH]c(=S)n2CC(N)=O)c2ccccc12 [Example 205, 2-[6-(4-methoxy-1-naphthyl)-4-oxo-2-thioxo-3,4-dihydropyrimidin-1(2H)-yl]acetamide]
4530 1/s per M	COc1nc(C)ccc1-c1cc(=O)[nH]c(=S)n1CCO [Example 21, 1-(2-hydroxyethyl)-6-(2-methoxy-6-methylpyridin-3-yl)-2-thioxo-2,3-dihydropyrimidin-4(1H)-one]
3110 1/s per M	CCOc1ccccc1-c1cc(=O)[nH]c(=S)n1CCOC [Example 310, 6-(2-ethoxyphenyl)-1-(2-methoxyethyl)-2-thioxo-2,3-dihydropyrimidin-4(1H)-one]
5490 1/s per M	COc1ccc(-c2cc(=O)[nH]c(=S)n2CCCCCO)c(OC)c1 [Example 225, 6-(2,4-dimethoxyphenyl)-1-(5-hydroxypentyl)-2-thioxo-2,3-dihydropyrimidin-4(1H)-one]
1110 1/s per M	COCCn1c(-c2ccccc2CCO)cc(=O)[nH]c1=S [Example 46, 6-[2-(2-hydroxyethyl)phenyl]-1-(2-methoxyethyl)-2-thioxo-2,3-dihydropyrimidin-4(1H)-one]
3900 1/s per M	COc1ccc(-c2cc(=O)[nH]c(=S)n2C[C@@H](O)CO)c(OC)c1 [Example 204, 1-[(2R)-2,3-dihydroxypropyl]-6-(2,4-dimethoxyphenyl)-2-thioxo-2,3-dihydropyrimidin-4(1H)-one]
5420 1/s per M	O=c1cc(-c2ccc3c(c2)CCO3)n(CCO)c(=S)[nH]1 [Example 15, 6-(2,3-dihydro-1-benzofuran-5-yl)-1-(2-hydroxyethyl)-2-thioxo-2,3-dihydropyrimidin-4(1H)-one]

same assay, conditions: Table 1A, 2 μM H2O2, pH 7.4

MPO kinact/Ki	Structure (SMILES)
5830 1/s per M	COc1ccc(-c2cc(=O)[nH]c(=S)n2CC(=O)NCCN(C)C)c(OC)c1 [Example 392, 2-[6-(2,4-dimethoxyphenyl)-4-oxo-2-thioxo-3,4-dihydropyrimidin-1(2H)-yl]-N-[2-(dimethylamino)ethyl]acetamide]
1680 1/s per M	NC(=O)Cn1c(-c2ccc(F)cc2OCCO)cc(=O)[nH]c1=S [Example 414, 2-{6-[4-fluoro-2-(2-hydroxyethoxy)phenyl]-4-oxo-2-thioxo-3,4-dihydropyrimidin-1(2H)-yl}acetamide]
6720 1/s per M	COc1ccc(OC)c(-c2cc(=O)[nH]c(=S)n2CCNC(=O)CN)c1 [Example 352, N-{2-[6-(2,5-dimethoxyphenyl)-4-oxo-2-thioxo-3,4-dihydropyrimidin-1(2H)-yl]ethyl}glycinamide]
4570 1/s per M	COc1ccc(F)cc1-c1cc(=O)[nH]c(=S)n1CC(=O)NCCN [Example 371, N-(2-aminoethyl)-2-[6-(5-fluoro-2-methoxyphenyl)-4-oxo-2-thioxo-3,4-dihydropyrimidin-1(2H)-yl]acetamide]
2660 1/s per M	COc1ccc(Cl)cc1-c1cc(=O)[nH]c(=S)n1C[C@H](O)CO [Example 359, 6-(5-chloro-2-methoxyphenyl)-1-[(2S)-2,3-dihydroxypropyl]-2-thioxo-2,3-dihydropyrimidin-4(1H)-one]
13600 1/s per M	O=c1cc(-c2ccccc2O)n(CCO)c(=S)[nH]1 [Example 366, 1-(2-hydroxyethyl)-6-(2-hydroxyphenyl)-2-thioxo-2,3-dihydropyrimidin-4(1H)-one]
4810 1/s per M	COc1ccc(-c2cc(=O)[nH]c(=S)n2CCCN)c(OCCO)c1 [Example 402, 1-(3-aminopropyl)-6-[2-(2-hydroxyethoxy)-4-methoxyphenyl]-2-thioxo-2,3-dihydropyrimidin-4(1H)-one]
8040 1/s per M	COc1ccc(Cl)cc1-c1cc(=O)[nH]c(=S)n1CC(=O)NCCN [Example 369, N-(2-aminoethyl)-2-[6-(5-chloro-2-methoxyphenyl)-4-oxo-2-thioxo-3,4-dihydropyrimidin-1(2H)-yl]acetamide]
4860 1/s per M	COc1ccc(-c2cc(=O)[nH]c(=S)n2CC(=O)NCCNC(=O)[C@H](C)N)c(OC)c1 [Example 399, N-[2-({[6-(2,4-dimethoxyphenyl)-4-oxo-2-thioxo-3,4-dihydropyrimidin-1(2H)-yl]acetyl}amino)ethyl]-L-alaninamide]
